# Values quoted from earlier work in patent publication US11149028B2, “Methods for treating melanoma using small molecules” (NOVA SOUTHEASTERN UNIVERSITY, priority 2016, dated 2021).
# Test system: PC-3 cells
# Conditions: read-out: IC50, apoptotic cell death of PC-3 cells; cited from earlier work
structure (smiles),measurement,value
O=c1c(O)c(-c2ccc(O)c(O)c2)oc2cc(O)cc(O)c12 [quercetin],IC50,100 µM
